Measurements taken from ChEMBL document CHEMBL1157539, “Thousands of chemical starting points for antimalarial lead identification” (Nature, 2010).

System: Plasmodium falciparum
Test: GSK_TCMDC: Inhibition of Plasmodium falciparum 3D7 in whole erythrocytes, using parasite LDH activity as an index of growth.
Format: functional, organism-based
Conditions: Plasmodium falciparum, 3D7

| SMILES | XC50 [nM] |
| --- | --- |
| CCC(C)OC(=O)C1=C(C)NC2=C(C(=O)CC(c3ccc(OC)c(OC)c3)C2)C1c1cccc(O)c1 (stereo not drawn) | 193 |
| CCCCCn1c(Sc2ccc(C#N)c([N+](=O)[O-])c2)nnc1-c1cccs1 | 777 |
| CCCCCCn1c(Sc2ccc(C#N)c([N+](=O)[O-])c2)nnc1-c1ccc(OC)cc1 | 849 |
| COc1cccc2c(Nc3ccccc3C)nc(Nc3ccccc3C)nc12 | 679 |
| COc1ccc(NC(=O)/C=C/c2ccc(-c3ccc(-c4noc(C)n4)cc3)cc2)cc1OCCN(C)C | 1370 |
| C[C@@H](N/C(=N\c1ccccc1Cl)Nc1ccc(C#N)cc1O)c1ccc(Br)cc1 | 753 |
| O=C(/C=C/c1ccc(Cl)cc1)NCCCCCN1CCCC(C(=O)Nc2ccc(Cl)c(Cl)c2)C1 (stereo not drawn) | 833 |
| NCc1ccc(CNCc2cccc(-c3ccc(-c4nc5cc(C(F)(F)F)ccc5[nH]4)cc3)c2)cc1 | 261 |
| FC(F)(F)c1cccc(CNC2CCN(CC3CCCCC3)CC2)c1 | 575 |
| CCC(C)CN1CCC(N(C)c2cc(NC(=O)c3ccc(F)cc3)ccn2)CC1 (stereo not drawn) | 977 |
| CC1(C)N=C(N)N=C(Nc2ccc(F)c(F)c2)N1 | 52.5 |
| O=C(Nc1cccc(-c2ccc(-c3nc4cc(F)ccc4[nH]3)s2)c1)c1cccnc1 | 608 |
| CCc1ccc2c(c1O)CCN(C)C2Cc1ccccc1Cl (stereo not drawn) | 251 |
| CCC(CC)(Cc1ccccc1)NC(=O)[C@H](CC1CCCCC1)Nc1ccc(C#N)c2ccccc12 | 634 |
| CCc1ccc(CN2CCCCC(NC(=O)c3cc(-c4ccccc4F)cs3)C2)cc1 (stereo not drawn) | 1160 |
| O=C(/C=C/c1ccc(Cl)c(Cl)c1)NCC[C@@H]1C[C@H]1CCN1CCC(c2c[nH]c3ccccc23)CC1 | 794 |
| CC(C)NCc1ccc(-c2ccc(-c3nc4cc(F)ccc4[nH]3)cc2)cc1 | 213 |
| CC(NC(=O)NC1CCC(CCN2CCCc3ccccc32)CC1)c1cccc2ccccc12 (stereo not drawn) | 1020 |
| Nc1nc(N)c2c(ccc3c2ccn3CCCF)n1 | 149 |
| COc1ccc(CNCc2cccc(-c3ccc(-c4nc5ccccc5[nH]4)s3)c2)cc1 | 816 |
| CN1CCN(CCNc2c3ccccc3nc3c2ccc2ccccc23)CC1 | 606 |
| COc1ccc2nccc([C@@H](O)CN3CCC(NC(=O)c4ccc(Cl)c(Cl)c4)CC3)c2c1 | 614 |
| CCC(CC)CN1C(=O)C(c2ccccc2)(c2ccccc2)N=C1N | 970 |
| CCNc1cc(C(=O)N[C@@H](Cc2ccc(F)c(F)c2)[C@H](O)CNC2CCCCC2)cc(N2CCCCS2(=O)=O)c1 | 117 |
| N=C(N)NCCCC(=O)NCC(N)=O | 165 |

| SMILES | XC50 [nM] |
| --- | --- |
| Cc1cc(-c2ccc(NC(=O)N3CCc4cc(Cl)c(N5CCN(C)CC5)cc43)cc2)ccc1C#N | 589 |
| Cc1ccc2nc(C)cc(N/N=C/c3ccc([N+](=O)[O-])cc3)c2c1 | 793 |
| Cc1[nH]c(C)c(-c2ccc(-c3ccccc3Cl)nc2)c(=O)c1Cl | 217 |
| Cc1cc(Nc2ccc(O)cc2)nc2cccc(O)c12 | 742 |
| N#Cc1cccc(C(=O)Nc2ccc(-c3cccc(CN4CCCC4)c3)cc2)c1 | 712 |
| COCCN1CCC(N(CC2(O)CCN(c3ccc(C(F)(F)F)cc3)CC2)C(=O)Cn2c(SCc3cccc(F)c3F)cc(=O)c3ccccc32)CC1 | 807 |
| Cc1cc(NC(=O)Nc2ccc(C#N)cc2)c2ccccc2n1 | 567 |
| NC1CCCN(Cc2ccc(-c3ccc(-c4nc5ccccc5[nH]4)s3)cc2)C1 (stereo not drawn) | 672 |
| O=C1COc2ccc3ccccc3c21 | 701 |
| CC(C)C1C(O)=C(c2ccc3ccccc3c2)C(=O)N1Cc1ccsc1 (stereo not drawn) | 1070 |
| Cc1cccc2[nH]c(-c3cc(-c4cccc(Cl)c4)cnc3N)nc12 | 124 |
| CN1CCC(C(=O)Nc2cccc(-c3ccc(-c4nc5ccccc5[nH]4)cc3)c2)CC1 | 1090 |
| CCN(CC)CCN(Cc1ccc(-c2ccc(C(F)(F)F)cc2)cc1)C(=O)c1ccc(-c2ccc(NC(=O)OC)cc2C)cc1 | 929 |
| O=C(Nc1ccccc1)N(Cc1ccc(-c2cccc(CNC3CCCC3)c2)cc1)C1CCN(Cc2ccccc2)CC1 | 427 |
| CS(=O)(=O)Cc1ccc(Nc2nccc(NC3CCN(c4nccc(C(F)(F)F)n4)CC3)n2)cc1 | 896 |
| Cc1ccc(S(=O)(=O)N(CCCNCc2cccc(O)c2)c2ccccc2)cc1 | 767 |
| Oc1cccc(-c2nc(-c3ccccc3)c(-c3ccc(Oc4ccc(-c5[nH]c(-c6cccc(O)c6)nc5-c5ccccc5)cc4)cc3)[nH]2)c1 | 855 |
| N=C(N)Nc1nc(-c2cccc(NC(=O)NCc3ccc(OC(F)(F)F)cc3)c2)cs1 | 703 |
| Cc1cccc2nc(-c3ccc(-c4ccc(CN5CCN(CCC#N)CC5)cc4)cc3)[nH]c12 | 864 |
| COc1ccc(-c2ccc(CNC3Cc4ccccc4C3)cc2)cc1S(=O)(=O)NCCN1CCCC1 | 798 |
| CCOc1ccc(CCCON2C(=N)N=C(N)NC2(C)C)cc1 | 3.2 |
| COc1ccc2nccc([C@@H](O)CN3CCC(NCc4cnc5snnc5c4)C(F)C3)c2c1 (stereo partly drawn) | 1350 |
| Cc1cccc2nc(-c3cccc(-c4ccc(NC(=O)CN5CCN(C)CC5)cc4)c3)[nH]c12 | 562 |
| O=C(NCCCCN1CCC(c2ccc3c(c2OCC(O)c2ccc(Cl)cc2)CCCC3)CC1)c1ccc(-c2ccc(C(F)(F)F)cc2)cc1 (stereo not drawn) | 1040 |
| N=C1N=C(N)NC2(CCCCC2)N1OCC1CCCCC1 | 155 |

| SMILES | XC50 [nM] |
| --- | --- |
| O=[N+]([O-])c1ccc(C2=NN(S(=O)(=O)c3c(Cl)cc(Cl)cc3Cl)CCCC2)cc1 | 125 |
| CN1CCN(CC(=O)Nc2ccc(-c3cccc(-c4nc5cc(C(F)(F)F)ccc5[nH]4)c3)cc2)CC1 | 399 |
| CCc1nc2nc(C)cc(Nc3ccc(F)c(Cl)c3)n2n1 | 974 |
| COCCNCc1ccc(-c2ccc(CNc3ccc4ncccc4c3)cc2)cc1 | 1040 |
| COc1ccc(Cn2c(Nc3cccc(C(F)(F)F)c3)nc3cc(C(=O)NCCN4CCCC4)cnc32)cc1Cl | 915 |
| COc1cc2nc(N3CCC(C(N)=O)CC3)nc(NCc3ccccc3)c2cc1OC | 887 |
| O=C(NCCCc1ccccc1)c1ccc(O)c(-c2cc(Cl)cc(Cl)c2)c1 | 567 |
| Cc1ccc(NC(=O)c2ccc(Cl)c(Cl)c2)cc1-c1ccc(C(=O)Nc2ccncc2)cc1 | 567 |
| COc1cc(CNC[C@@H](O)[C@H](Cc2ccccc2)NC(=O)c2cc(C3CCCC3)cc(N3CCCC3=O)c2)cc(OC)c1 | 224 |
| Fc1ccc2[nH]c(-c3cccc(-c4ccc(CN5CCN(c6cnccn6)CC5)cc4)c3)nc2c1 | 893 |
| CCNc1cc(C)nc(Nc2ccc(C)cc2)n1 | 730 |
| O=C(Nc1cccc(-c2nn3ccccc3c2-c2ccnc(Nc3cccc(N4CCCC4=O)c3)n2)c1)c1cc(F)ccc1F | 212 |
| Cc1nc(NCc2ccccc2)cc(NCC(O)c2ccc(O)cc2)n1 (stereo not drawn) | 1230 |
| NCc1cccc(-c2ccccc2CNC2CCN(Cc3ccccc3)CC2)c1 | 770 |
| CCCC[C@H](NC(=O)OC(C)(C)C)C(=O)Nc1ccc(Cc2ccc(NC(=O)[C@H](CCCC)NC(=O)OC(C)(C)C)cc2)cc1 | 733 |
| CN(C)S(=O)(=O)n1ncc2c3c(N)nc(N)nc3ccc21 | 178 |
| CN1CCC(Oc2ccc(Nc3nccc(NCC(O)c4ccccc4)n3)cc2Cl)CC1 (stereo not drawn) | 785 |
| Cn1c2ccccc2c2c3ccccc3c(CNC(CO)(CO)CO)cc21 | 518 |
| Cc1cc(-c2ccc(Cl)cc2)c2c(N)c(C(=O)Nc3ccc(F)cc3)sc2n1 | 818 |
| CCCC(C)NC[C@@H](O)[C@H](Cc1ccccc1)NC(=O)c1cc(C2CCCC2)cc(N2CCCCS2(=O)=O)c1 (stereo partly drawn) | 147 |
| CCN(CCCN1CCCCC1)c1cc(C)nc(Nc2cccc(OC(F)(F)F)c2)n1 | 229 |
| O=C(/C=C/c1ccc(Cl)c(Cl)c1)NCCCCCCN1CCCN(C(=O)Nc2cccc(C(F)(F)F)c2)CC1 | 793 |
| C[C@H](Cc1ccc(OCCCCCCOc2ccccc2)cc1)NC[C@@H](O)c1cc(Br)no1 | 883 |
| COc1ccc(CNC2CCN(C)CC2)cc1-c1ccc(OC)c(S(=O)(=O)NCc2ccccc2)c1 | 951 |
| CCCCCc1cc(O)c2c(c1)OC(C)(C)C=C2C1=CCN(Cc2ccsc2)CC1 | 964 |

| SMILES | XC50 [nM] |
| --- | --- |
| Cc1c(C)n(C2CCCCC2)c2ncnc(OC3CCN(CC(=O)NC4CC4)CC3)c12 | 1240 |
| Cc1c(C(=O)N[C@@H](C)c2ccccc2)c2cc(O)c(Br)cc2n1C1CCCCC1 | 840 |
| C#CCN1CCC2=C(C1)c1c(O)cc(C(C)C(C)CCc3ccc(F)cc3)cc1OC2(C)C (stereo not drawn) | 175 |
| COc1ccc2nc3cc(Cl)ccc3c(Nc3ccc(C(=O)O)cc3)c2c1 | 301 |
| O=C(Nc1ccc(OC2CCN(Cc3ccc(F)cc3)C2)c(Cl)c1)c1ccccc1 (stereo not drawn) | 787 |
| CN(C)c1ccc(CN2CCCC(CNC(=O)c3ccc(-c4cccc(C(F)(F)F)c4)s3)C2)cc1 (stereo not drawn) | 1200 |
| COc1cc(Cc2cnc(N)nc2N)cc(OCCCCNS(=O)(=O)C(F)(F)F)c1OC | 1040 |
| Cc1ncc([N+](=O)[O-])n1CCOC(=O)NC(NCC1COc2ccccc2O1)C(Cl)(Cl)Cl (stereo not drawn) | 223 |
| COc1ccc(OCC(O)CN(Cc2ccccc2OC)C(=O)Nc2ccc(Br)cc2)cc1 (stereo not drawn) | 748 |
| CC1CN(c2cnn(Cc3cccc(NC(=O)Nc4cccc(C(F)(F)F)c4)c3)c(=O)c2Cl)CC(C)N1 (stereo not drawn) | 818 |
| COc1ccc2ncc(F)c(CCN3CCC(NCc4cc(C)c5c(c4)OCCO5)CC3)c2n1 | 493 |
| Cc1cccc(CNc2nc(C)cc(N[C@@H](Cc3ccccc3)C(=O)NCCc3ccccc3)n2)c1 | 673 |
| O=C(Nc1cccc(CN2CCCN(Cc3ccc(O)cc3)CC2)c1)c1cccc(F)c1 | 896 |
| CCCc1cc(OC)c(C[C@@H]2c3cc(O)c(Cl)cc3CCN2C)cc1OC | 722 |
| c1cncc(Oc2ccc(Nc3ccnc4cc(-c5cccc(CN6CCCCC6)c5)ccc34)cc2)c1 | 124 |
| COCCNC(=O)C1CCN(C(c2ccc(Cl)cc2)c2ccc(Cl)cc2)CC1 | 553 |
| CC1CCCCN1Cc1cccc(-c2c[nH]c3nc(NC4CCCC4)ncc23)c1 (stereo not drawn) | 1310 |
| FC(F)(F)c1ccc(-c2cncc(-c3ccc(C(F)(F)F)cc3)n2)cc1 | 759 |
| COc1ccc(C(C)Nc2nc(N)c3cc(OC)c(OC)cc3n2)cc1 (stereo not drawn) | 936 |
| C[C@H](Cc1ccc(C[C@@H](C)NC[C@H](O)c2cccc(Cl)c2)cc1)NC[C@H](O)COc1ccccc1 | 1170 |
| CCSc1nnc(C2CCCN(CC(=O)Nc3cc(C(F)(F)F)ccc3Cl)C2)n1CC (stereo not drawn) | 232 |
| CCNc1cc(C(=O)N[C@@H](Cc2ccccc2)[C@H](O)CNC2CCCCC2)cc(N2CCCCS2(=O)=O)c1 | 170 |
| Cc1ccnc2nc(C(=O)Nc3cc(C(F)(F)F)ccc3N3CCCCC3)nn12 | 61.8 |
